Here are results for 30 molecules from US20250325552A1, “SUBSTITUTED THIADIAZOLYL DERIVATIVES AS DNA POLYMERASE THETA INHIBITORS” (IDEAYA Biosciences, Inc., priority 2020, published 2025).

The assay concerns the target Polθ theta (1-899) (hPolQ) (Homo sapiens (Human), UniProt O75417). Briefly: Biological Assay 1: Polθ ATPase activity, NADH oxidation-coupled enzymatic assay (10 nM enzyme, 30 min). Particulars: Polθ (1-899) 10 nM, 100 μM ATP, 300 nM dT50 ssDNA; Examples 1 to 268; read-out: ATPase NADH coupling:Standard Screening:hPolQ IC50. The class given is biochemical. In a few lines: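 Polθ (1-899) at 10 nM was preincubated with compound for 15 min at room temperature in 20 mM Tris pH 7.80, 80 mM KCl, 10 mM MgCl2. An equal volume of 100 μM ATP, 300 nM dT50 ssDNA and a PK/LDH–NADH coupling system was then added. A340 was read each minute for 30 min. IC50 came from rate slopes over 10-point series with a four-parameter fit.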

Polθ theta (1-899) (hPolQ), sequence (O75417 1-899): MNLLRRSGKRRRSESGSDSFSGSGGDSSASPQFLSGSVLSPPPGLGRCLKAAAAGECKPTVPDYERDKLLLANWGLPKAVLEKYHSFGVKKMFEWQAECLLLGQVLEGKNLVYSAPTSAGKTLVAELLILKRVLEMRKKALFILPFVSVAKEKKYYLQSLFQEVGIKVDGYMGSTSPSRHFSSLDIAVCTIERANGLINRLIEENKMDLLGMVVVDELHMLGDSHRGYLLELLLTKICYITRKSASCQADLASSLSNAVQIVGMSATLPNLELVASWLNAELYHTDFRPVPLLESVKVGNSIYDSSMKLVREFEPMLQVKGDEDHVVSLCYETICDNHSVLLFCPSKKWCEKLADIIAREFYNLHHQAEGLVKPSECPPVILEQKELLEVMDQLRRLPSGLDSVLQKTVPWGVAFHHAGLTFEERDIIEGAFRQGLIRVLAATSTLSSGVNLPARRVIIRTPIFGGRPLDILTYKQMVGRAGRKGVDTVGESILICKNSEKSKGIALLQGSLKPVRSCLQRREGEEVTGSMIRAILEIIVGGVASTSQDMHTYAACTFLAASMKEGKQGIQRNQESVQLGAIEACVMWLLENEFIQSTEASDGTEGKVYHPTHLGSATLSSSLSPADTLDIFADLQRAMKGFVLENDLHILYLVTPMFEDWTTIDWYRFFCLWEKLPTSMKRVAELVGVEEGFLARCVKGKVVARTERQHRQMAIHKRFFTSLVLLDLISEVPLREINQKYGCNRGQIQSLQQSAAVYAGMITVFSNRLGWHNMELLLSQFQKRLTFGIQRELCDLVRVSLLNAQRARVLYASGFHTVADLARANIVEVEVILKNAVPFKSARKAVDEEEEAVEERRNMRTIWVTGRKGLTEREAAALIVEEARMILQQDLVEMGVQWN

For `COc1cnc(Cl)cc1-c1cc(C)ncc1C(=O)Nc1nnc(OC[C@H]2COC[C@H]2C)s1` (single isomer, unassigned) [Example 267], the IC50 is not above 0.2 µM. For `COc1ccc(COc2nnc(NC(=O)c3cnc(C)cc3-c3cc(Cl)ccc3OC)s2)nc1` [Example 52, 4-(5-chloro-2-methoxyphenyl)-N-(5-((5-methoxypyridin-2-yl)methoxy)-1,3,4-thiadiazol-2-yl)-6-methylpyridine-3-carboxamide] the value was not above 0.2 µM; for `COc1cccc(F)c1-c1cc(C)ncc1C(=O)Nc1nnc(OCc2ccc3c(n2)CCC[C@@H]3O)s1` [Example 116, 4-(2-fluoro-6-methoxyphenyl)-N-(5-(((S)-5-hydroxy-5,6,7,8-tetrahydroquinolin-2-yl)methoxy)-1,3,4-thiadiazol-2-yl)-6-methylnicotinamide], not above 0.2 µM; for `COc1cccc(F)c1-c1cc(C)ncc1C(=O)Nc1nnc(OCc2ccc([S@](C)(=N)=O)cc2)s1` [Example 114, 4-(2-fluoro-6-methoxyphenyl)-6-methyl-N-(5-((4-((R)—S-methylsulfonimidoyl)benzyl)oxy)-1,3,4-thiadiazol-2-yl)nicotinamide], not above 0.2 µM. Under `COc1cnc(Cl)cc1-c1cc(C)ncc1C(=O)Nc1nnc(OCC2CCN(C)C2)s1` (stereo not drawn) [Example 176, 2′-chloro-5′-methoxy-6-methyl-N-(5-((1-methylpyrrolidin-3-yl)methoxy)-1,3,4-thiadiazol-2-yl)-(4,4′-bipyridine)-3-carboxamide] stands 0.2 to 0.5 µM; under `COc1cccc(F)c1-c1cc(C)ncc1C(=O)Nc1nnc(OCc2cc(CO)ccn2)s1` [Example 72, 4-(2-fluoro-6-methoxyphenyl)-N-(5-((4-(hydroxymethyl)pyridin-2-yl)methoxy)-1,3,4-thiadiazol-2-yl)-6-methylnicotinamide], not above 0.2 µM; under `COc1cnc(Cl)cc1-c1cc(C)ncc1C(=O)Nc1nnc(OCc2ccc(C(C)(C)O)cn2)s1` [Example 58, 2′-chloro-N-(5-((5-(2-hydroxypropan-2-yl)pyridin-2-yl)methoxy)-1,3,4-thiadiazol-2-yl)-5′-methoxy-6-methyl-[4,4′-bipyridine]-3-carboxamide], not above 0.2 µM.

In the case of `COc1cccc(F)c1-c1cc(C)ncc1C(=O)Nc1nnc(OCc2cnc([C@@H](C)O)cn2)s1` [Example 111, 4-(2-fluoro-6-methoxyphenyl)-N-(5-((5-((R)-1-hydroxyethyl)pyrazin-2-yl)methoxy)-1,3,4-thiadiazol-2-yl)-6-methylnicotinamide], the IC50 was not above 0.2 µM. As to `COc1cnc(Cl)cc1-c1cc(C)ncc1C(=O)Nc1nnc(OCC2CCOC2C)s1` (stereo not drawn) [Example 177, 2′-chloro-5′-methoxy-6-methyl-N-(5-((2-methyltetrahydrofuran-3-yl)methoxy)-1,3,4-thiadiazol-2-yl)-(4,4′-bipyridine)-3-carboxamide], the IC50 was not above 0.2 µM.

Regarding `Cc1cc(-c2c(F)cccc2OC(F)F)c(C(=O)Nc2nnc(OCc3ccc(C(C)(C)O)cn3)s2)cn1` [Example 50, 4-(2-(difluoromethoxy)-6-fluorophenyl)-N-(5-((5-(2-hydroxypropan-2-yl)pyridin-2-yl)methoxy)-1,3,4-thiadiazol-2-yl)-6-methylnicotinamide], the IC50 is not above 0.2 µM. As for `COc1ccc(C#N)cc1-c1cc(C)ncc1C(=O)Nc1nnc(OCc2ccc(CO)cn2)s1` [Example 32, 4-(5-cyano-2-methoxyphenyl)-N-(5-((5-(hydroxymethyl)pyridin-2-yl)methoxy)-1,3,4-thiadiazol-2-yl)-6-methylpyridine-3-carboxamide], the IC50 is not above 0.2 µM. For `COc1cnc(Cl)cc1-c1cc(C)ncc1C(=O)Nc1nnc(OC[C@H]2C[C@@H](O)C2)s1` [Example 193, 2′-chloro-N-(5-(((1s,3s)-3-hydroxycyclobutyl)methoxy)-1,3,4-thiadiazol-2-yl)-5′-methoxy-6-methyl-(4,4′-bipyridine)-3-carboxamide] the value was not above 0.2 µM. For `COc1cccc(F)c1-c1cc(C)ncc1C(=O)Nc1nnc(OCc2ccc(C3CCO3)cn2)s1` (stereo not drawn) [Example 130, 4-(2-fluoro-6-methoxyphenyl)-6-methyl-N-(5-((5-(oxetan-2-yl)pyridin-2-yl)methoxy)-1,3,4-thiadiazol-2-yl)nicotinamide] the value was not above 0.2 µM. With `COc1cnc(Cl)cc1-c1cc(C)ncc1C(=O)Nc1nnc(OC[C@@H]2CCO2)s1` (single isomer, unassigned) [Example 169], the IC50 was not above 0.2 µM. As to `COc1ccc(Cl)cc1-c1cnncc1C(=O)Nc1nnc(OCC23CCC(O)(CC2)CC3)s1` [Example 121, 5-(5-chloro-2-methoxyphenyl)-N-(5-((4-hydroxybicyclo(2.2.2)octan-1-yl)methoxy)-1,3,4-thiadiazol-2-yl)pyridazine-4-carboxamide], the IC50 lay in the range of 0.2 to 0.5 µM. Under `COc1cnc(Cl)cc1-c1cc(C)ncc1C(=O)Nc1nnc(OC[C@@H]2CO[C@@H](C)C2)s1` (single isomer, unassigned) [Example 254] stands not above 0.2 µM; under `COc1cnc(Cl)cc1-c1cc(C)ncc1C(=O)Nc1nnc(OCc2ccc(CO)cn2)s1` [Example 60, 2′-chloro-N-(5-((5-(hydroxymethyl)pyridin-2-yl)methoxy)-1,3,4-thiadiazol-2-yl)-5′-methoxy-6-methyl-[4,4′-bipyridine]-3-carboxamide], not above 0.2 µM. For `COc1cnc(Cl)cc1-c1cc(C)ncc1C(=O)Nc1nnc(OC[C@@H]2CCO[C@@H]2C)s1` (single isomer, unassigned) [Example 179], the IC50 was not above 0.2 µM. For `COc1cnc(Cl)cc1-c1cc(C)ncc1C(=O)Nc1nnc(OCC2CC2(F)F)s1` (stereo not drawn) [Example 206, 2′-chloro-N-(5-((2,2-difluorocyclopropyl)methoxy)-1,3,4-thiadiazol-2-yl)-5′-methoxy-6-methyl-(4,4′-bipyridine)-3-carboxamide] the value was not above 0.2 µM. Consider `COc1cnc(Cl)c(F)c1-c1cc(C)ncc1C(=O)Nc1nnc(OCC2CCOC2)s1` (stereo in doubt) [Example 183, 2′-chloro-3′-fluoro-5′-methoxy-6-methyl-N-(5-(((R)-tetrahydrofuran-3-yl)methoxy)-1,3,4-thiadiazol-2-yl)-(4,4′-bipyridine)-3-carboxamide], for which the IC50 is not above 0.2 µM. Under `COc1ccccc1-c1cc(C)ncc1C(=O)Nc1nnc(O[C@H](CO)c2ccc(Cl)cn2)s1` [Example 30, (S)—N-(5-(1-(5-chloropyridin-2-yl)-2-hydroxyethoxy)-1,3,4-thiadiazol-2-yl)-4-(2-methoxyphenyl)-6-methylnicotinamide] stands 0.5 to 1 µM; under `COc1cccc(F)c1-c1cc(C)ncc1C(=O)Nc1nnc(OCc2cnc([C@H](C)O)cn2)s1` [Example 110, 4-(2-fluoro-6-methoxyphenyl)-N-(5-((5-((S)-1-hydroxyethyl)pyrazin-2-yl)methoxy)-1,3,4-thiadiazol-2-yl)-6-methylnicotinamide], not above 0.2 µM. As to `COc1cnc(C)c(F)c1-c1cc(C)ncc1C(=O)Nc1nnc(OC[C@H]2CC[C@H](O)CC2)s1` [Example 212, 3′-fluoro-N-(5-(((1r,4r)-4-hydroxycyclohexyl)methoxy)-1,3,4-thiadiazol-2-yl)-5′-methoxy-2′,6-dimethyl-(4,4′-bipyridine)-3-carboxamide], the IC50 was not above 0.2 µM.

Regarding `Cc1cc(-c2cc(Cl)ncc2OC(F)F)c(C(=O)Nc2nnc(OC[C@H]3CC[C@H](O)CC3)s2)cn1` [Example 243, 2′-chloro-5′-(difluoromethoxy)-N-(5-(((1r,4r)-4-hydroxycyclohexyl)methoxy)-1,3,4-thiadiazol-2-yl)-6-methyl-(4,4′-bipyridine)-3-carboxamide], the IC50 was not above 0.2 µM.

With `COc1ccccc1-c1nc2cccnc2cc1C(=O)Nc1nnc(OCc2ccc(Cl)cn2)s1` [Example 9, N-(5-((5-chloropyridin-2-yl)methoxy)-1,3,4-thiadiazol-2-yl)-2-(2-methoxyphenyl)-1,5-naphthyridine-3-carboxamide], the IC50 fell in the range of 1 to 10 µM. Under `COc1cccc(F)c1-c1cnncc1C(=O)Nc1nnc(OCc2ccc(Cl)cn2)s1` [Example 64, N-(5-((5-chloropyridin-2-yl)methoxy)-1,3,4-thiadiazol-2-yl)-5-(2-fluoro-6-methoxyphenyl)pyridazine-4-carboxamide] stands not above 0.2 µM; under `COc1cccc(F)c1-c1cc(C)ncc1C(=O)Nc1nnc(OCc2ccc(C(C)(C)OC)cn2)s1` [Example 80, 4-(2-fluoro-6-methoxyphenyl)-N-(5-((5-(2-methoxypropan-2-yl)pyridin-2-yl)methoxy)-1,3,4-thiadiazol-2-yl)-6-methylnicotinamide], not above 0.2 µM; under `COc1cnc(Br)cc1-c1cc(C)ncc1C(=O)Nc1nnc(OC[C@@H]2COCCO2)s1` [Example 235, (S)—N-(5-((1,4-dioxan-2-yl)methoxy)-1,3,4-thiadiazol-2-yl)-2′-bromo-5′-methoxy-6-methyl-(4,4′-bipyridine)-3-carboxamide], not above 0.2 µM. Take `COc1cccc(F)c1-c1cc2ncn(C)c2cc1C(=O)Nc1nnc(OC[C@H]2CC[C@H](O)CC2)s1` [Example 200, 5-(2-fluoro-6-methoxyphenyl)-N-(5-(((1r,4r)-4-hydroxycyclohexyl)methoxy)-1,3,4-thiadiazol-2-yl)-1-methyl-1H-benzo(d)imidazole-6-carboxamide]: the IC50 was in the range of 0.2 to 0.5 µM. For `COc1cnc(Cl)cc1-c1cc(C)ncc1C(=O)Nc1nnc(OCc2ccc(C(C)(C)OC)cn2)s1` [Example 125, 2′-chloro-5′-methoxy-N-(5-((5-(2-methoxypropan-2-yl)pyridin-2-yl)methoxy)-1,3,4-thiadiazol-2-yl)-6-methyl-(4,4′-bipyridine)-3-carboxamide] the value was not above 0.2 µM.

The IC50 is the concentration at which inhibition is half-maximal.
